The target of this experiment is LSD-1 enzyme (Homo sapiens (Human), UniProt O60341). It is filed as biochemical. As to conditions: 1 nM LSD-1 enzyme, 1 hour preincubation at 25° C., Biotin-labeled Histone H3 peptide substrate. On the procedure: Example A: LSD1 Histone Demethylase Biochemical Assay
LANCE LSD1/KDM1A demethylase assay—10 μL of 1 nM LSD-1 enzyme (ENZO BML-SE544-0050) in the assay buffer (50 mM Tris, pH 7.5, 0.01% Tween-20, 25 mM NaCl, 5 mM DTT) were preincubated for 1 hour at 25° C. with 0.8 μL compound/DMSO dotted in black 384 well polystyrene plates. […] Reactions were stopped by addition of 10 μL 1× LANCE Detection Buffer (PerkinElmer CR97-100) supplemented with 1.5 nM Eu-anti-unmodified H3K4 Antibody (PerkinElmer TRF0404), and 225 nM LANCE Ultra Streptavidin (PerkinElmer TRF102) along with 0.9 mM Tranylcypromine-HCl (Millipore 616431). After stopping the reactions plates were incubated for 30 minutes and read on a PHERAstar FS plate reader (BMG Labtech).
As usually defined, the IC50 is the concentration at which inhibition is half-maximal. Consider `Cn1cc(-c2cccc(CC3(CN[C@@H]4C[C@H]4c4ccccc4)CCN(CCC(=O)O)CC3)c2)cn1` [Example 27, 3-[4-[3-(1-methyl-1H-pyrazol-4-yl)benzyl]-4-({[(1R,2S)-2-phenylcyclopropyl]amino}methyl)piperidin-1-yl]propanoic Acid], for which the IC50 is below 0.1 µM. For the compound `O=C(O)CCN1CCC(CN[C@@H]2C[C@H]2c2ccccc2)(COc2ccccc2F)CC1` [Example 37, 3-[4-[(2-fluorophenoxy)methyl]-4-({[(1R,2S)-2-phenylcyclopropyl]amino}methyl)piperidin-1-yl]propanoic Acid], the IC50 was below 0.1 µM. `N#Cc1ccc(OCC2(CN[C@@H]3C[C@H]3c3ccccc3)CCN(CCC(=O)O)CC2)cc1` [Example 44, 3-[4-[(4-cyanophenoxy)methyl]-4-({[(1R,2S)-2-phenylcyclopropyl]amino}methyl)piperidin-1-yl]propanoic Acid] came in with an IC50 below 0.1 µM. For `CCOCC1(CN[C@@H]2C[C@H]2c2ccccc2)CCN(CCC(=O)O)CC1` [Example 51, 3-[4-(ethoxymethyl)-4-({[(1R,2S)-2-phenylcyclopropyl]amino}methyl)piperidin-1-yl]propanoic Acid] the value was below 0.1 µM; for `CN1CCC(CC#N)(CN[C@@H]2C[C@H]2c2ccccc2)CC1` (relative stereo) [Example 5, (1-Methyl-4-{[(trans-2-phenylcyclopropyl)amino]methyl}piperidin-4-yl)acetonitrile], below 0.1 µM. For `N#CCC1(CN[C@@H]2C[C@H]2c2ccccc2)CCNCC1` (relative stereo) [Example 6, (4-{[(trans-2-Phenylcyclopropyl)amino]methyl}piperidin-4-yl)acetonitrile] the value was below 0.1 µM; for `N#Cc1ccc(CC2(CN[C@@H]3C[C@H]3c3ccccc3)CCN(CCC(=O)O)CC2)cc1` [Example 41, 3-[4-(4-cyanobenzyl)-4-({[(1R,2S)-2-phenylcyclopropyl]amino}methyl)piperidin-1-yl]propanoic Acid], below 0.1 µM. Regarding `O=C(O)CCN1CCC(CN[C@@H]2C[C@H]2c2ccccc2)(COC2CCCCC2)CC1` [Example 53, 3-[4-[(cyclohexyloxy)methyl]-4-({[(1R,2S)-2-phenylcyclopropyl]amino}methyl)piperidin-1-yl]propanoic Acid], the IC50 is below 0.1 µM. As for `O=C(O)CCN1CCC(CN[C@@H]2C[C@H]2c2ccccc2)(COc2ncc(F)cn2)CC1` [Example 46, 3-[4-{[(5-fluoropyrimidin-2-yl)oxy]methyl}-4-({[(1R,2S)-2-phenylcyclopropyl]amino}methyl)piperidin-1-yl]propanoic Acid], the figure is below 0.1 µM. For `CN(C)C(=O)N1CCC(CC#N)(CN[C@@H]2C[C@H]2c2ccccc2)CC1` (relative stereo) [Example 3, 4-(Cyanomethyl)-N,N-dimethyl-4-{[(trans-2-phenylcyclopropyl)amino]methyl}piperidine-1-carboxamide] the value was below 0.1 µM; for `CCN1CCC(CN[C@@H]2C[C@H]2c2ccccc2)(Cc2cccc(C(=O)O)c2)CC1` [Example 29, 3-{[1-ethyl-4-({[(1R,2S)-2-phenylcyclopropyl]amino}methyl)piperidin-4-yl]methyl}benzoic Acid], below 0.1 µM. `CNC(=O)CCN1CCC(CN[C@@H]2C[C@H]2c2ccccc2)(COC)CC1` [Example 24, 3-[4-(methoxymethyl)-4-({[(1R,2S)-2-phenylcyclopropyl]amino}methyl)piperidin-1-yl]-N-methylpropanamide] yielded an IC50 below 0.1 µM.

`COCC1(CN[C@@H]2C[C@H]2c2ccccc2)CCN(C(=O)N2CCOCC2)CC1` [Example 49, (1R,2S)—N-{[4-(methoxymethyl)-1-(morpholin-4-ylcarbonyl)piperidin-4-yl]methyl}-2-phenylcyclopropanamine] came in with an IC50 below 0.1 µM. For `COc1ccc(CC2(CN[C@@H]3C[C@H]3c3ccccc3)CCN(CCC(=O)O)CC2)cn1` [Example 50, 3-[4-[(6-methoxypyridin-3-yl)methyl]-4-({[(1R,2S)-2-phenylcyclopropyl]amino}methyl)piperidin-1-yl]propanoic Acid] the value was below 0.1 µM; for `O=C(O)CCN1CCC(CN[C@@H]2C[C@H]2c2ccccc2)(Cc2ccc(F)cn2)CC1` [Example 54, 3-[4-[(5-fluoropyridin-2-yl)methyl]-4-({[(1R,2S)-2-phenylcyclopropyl]amino}methyl)piperidin-1-yl]propanoic Acid], below 0.1 µM; for `N#Cc1ccc(CC2(CN[C@@H]3C[C@H]3c3ccccc3)CCN(CCC(=O)O)CC2)c(F)c1` [Example 42, 3-[4-(4-cyano-2-fluorobenzyl)-4-({[(1R,2S)-2-phenylcyclopropyl]amino}methyl)piperidin-1-yl]propanoic Acid], below 0.1 µM. As for `CC(=O)N1CCC(CC#N)(CN[C@@H]2C[C@H]2c2ccccc2)CC1` (relative stereo) [Example 1, (1-Acetyl-4-{[(trans-2-phenylcyclopropyl)amino]methyl}piperidin-4-yl)acetonitrile], the figure is below 0.1 µM; as for `O=C(O)c1cccc(CC2(CN[C@@H]3C[C@H]3c3ccccc3)CCN(CC3CC3)CC2)c1` [Example 30, 3-{[1-(cyclopropylmethyl)-4-({[(1R,2S)-2-phenylcyclopropyl]amino}methyl)piperidin-4-yl]methyl}benzoic Acid], below 0.1 µM; as for `COC(=O)N1CCC(CC#N)(CN[C@@H]2C[C@H]2c2ccccc2)CC1` (relative stereo) [Example 2, Methyl 4-(cyanomethyl)-4-{[(trans-2-phenylcyclopropyl)amino]methyl}piperidine-1-carboxylate], below 0.1 µM. As for `N#CCc1ccc(CC2(CN[C@@H]3C[C@H]3c3ccccc3)CCN(CCC(=O)O)CC2)cc1` [Example 25, 3-[4-[4-(cyanomethyl)benzyl]-4-({[(1R,2S)-2-phenylcyclopropyl]amino}methyl)piperidin-1-yl]propanoic Acid], the figure is below 0.1 µM; as for `COCC1(CN[C@@H]2C[C@H]2c2ccccc2)CCNCC1` [Example 21, (1R,2S)—N-{[4-(methoxymethyl)piperidin-4-yl]methyl}-2-phenylcyclopropanamine], below 0.1 µM. With `O=C(O)CCN1CCC(CN[C@@H]2C[C@H]2c2ccccc2)(Cc2ccc(F)cc2)CC1` [Example 8, 3-[4-(4-fluorobenzyl)-4-({[(1R,2S)-2-phenylcyclopropyl]amino}methyl)piperidin-1-yl]propanoic Acid], the IC50 is below 0.1 µM.

As to `COCC1(CN[C@@H]2C[C@H]2c2ccccc2)CCN(C(=O)CN2CCOCC2)CC1` [Example 61, (1R,2S)—N-{[4-(methoxymethyl)-1-(morpholin-4-ylacetyl)piperidin-4-yl]methyl}-2-phenylcyclopropanamine], the IC50 is below 0.1 µM. Turning to `O=C(O)CCN1CCC(CN[C@@H]2C[C@H]2c2ccccc2)(COc2ccc(F)cn2)CC1` [Example 45, 3-[4-{[(5-fluoropyridin-2-yl)oxy]methyl}-4-({[(1R,2S)-2-phenylcyclopropyl]amino}methyl)piperidin-1-yl]propanoic Acid], the IC50 is below 0.1 µM. The compound `N#CC1(c2ccc(CC3(CN[C@@H]4C[C@H]4c4ccccc4)CCN(CCC(=O)O)CC3)cc2)CC1` [Example 26, 3-[4-[4-(1-cyanocyclopropyl)benzyl]-4-({[(1R,2S)-2-phenylcyclopropyl]amino}methyl)piperidin-1-yl]propanoic Acid] came in with an IC50 below 0.1 µM.

For the origin of these results see patent publication US10300051B2, “Cyclopropylamines as LSD1 inhibitors” (priority 2014, dated 2019).
